Laboratory results: PMC10762078, “Role of UPF1-LIN28A interaction during early differentiation of pluripotent stem cells” (Nature Communications, 2024)

Test system: hPSCs
Assay: RT-qPCR of pluripotency and germ-layer markers during differentiation with CPP-peptides (Supplementary Fig. 7b-e)
Format: cell-based, human
Settings: for CXCR4 (RT-qPCR) / FOXA1 (RT-qPCR) / GATA4 (RT-qPCR) / SOX17 (RT-qPCR): Fig. s7e; for BMP2 mRNA level (RT-qPCR) / BMP4 mRNA level (RT-qPCR) / CDH2 mRNA level (RT-qPCR) / CXCR4 mRNA level (RT-qPCR) / SNAI1 mRNA level (RT-qPCR) / TBXT mRNA level (RT-qPCR): Fig. s7d
Protocol: For CPP-conjugated peptide delivery, HeLa, 293T, and PA-1 cells were incubated with CPP-conjugated peptides or CPP-FITC at 2 μM in DMEM with 10% FBS for 12 h a day before cell harvest. hPSCs were treated with CPP-conjugated peptides at 10 μM in mTeSR Plus Medium, and the peptide-containing medium was changed every day over 10 days. The ROCK inhibitor (Tocris Bioscience, Y-27632) treated-hPSCs were dissociated into single cells using Accutase (Merck, SCR005) and differentiated into ectoderm, mesoderm, and endoderm using the STEMdiff Trilineage Differentiation Kit ([…] Technologies, 05230) following the manufacturer’s protocol. Differentiated cells treated with CPP-conjugated peptides were analysed at 0, 3, and 5 days for ectoderm and endoderm, and at 0, 3, and 4 days for mesoderm. […]
cDNA was synthesised using RevertAid Reverse Transcriptase (Thermo Fisher Scientific, EP0441) with synthesised random hexamer (Macrogen) for total RNA or stem-loop primers for miRNA. For RT-qPCR reactions, the SensiFAST SYBR No-ROX kit (Meridian Bioscience) was used according to the manufacturer’s protocol. All data analysis and visualisation were conducted using R 3.6.1 [www.r-project.org] or GraphPad Prism 10. RT primers for miRNA and RT-qPCR primer sequences are provided in Supplementary Data 6. […]
FPKM of each gene was presented f r om RNA-seq analysis. b–e hPSCs wer e treated with the indicated peptide during each germ la ye r differentiation. […]
An unpaired Student’s t-test was used for a–e. Data are presented as mean values ± SEM. All statistical test us ed wer e two-s ided. T he m inim um number of independent biological replicate experim ents was a–f n = 3. T he experiments wer e conducted three tim es, each iteration producing consistent results.

N-MPELQKLQQLKDE-C [P2, peptide derived from the UPF1 (419–700) domain]
CXCR4 (RT-qPCR) (Day 0, replicate 1): 1.088
CXCR4 (RT-qPCR) (Day 0, replicate 2): 0.7848
CXCR4 (RT-qPCR) (Day 0, replicate 3): 1.127
CXCR4 (RT-qPCR) (Day 3, replicate 1): 897.043
CXCR4 (RT-qPCR) (Day 3, replicate 2): 593.555
CXCR4 (RT-qPCR) (Day 3, replicate 3): 261.141
CXCR4 (RT-qPCR) (Day 5, replicate 1): 674.407
CXCR4 (RT-qPCR) (Day 5, replicate 2): 690.257
CXCR4 (RT-qPCR) (Day 5, replicate 3): 509.637
FOXA1 (RT-qPCR) (Day 0, replicate 1): 1.247
FOXA1 (RT-qPCR) (Day 0, replicate 2): 1.413
FOXA1 (RT-qPCR) (Day 0, replicate 3): 0.3396
FOXA1 (RT-qPCR) (Day 3, replicate 1): 120.605
FOXA1 (RT-qPCR) (Day 3, replicate 2): 127.453
FOXA1 (RT-qPCR) (Day 3, replicate 3): 128.785
FOXA1 (RT-qPCR) (Day 5, replicate 1): 296.789
FOXA1 (RT-qPCR) (Day 5, replicate 2): 436.764
FOXA1 (RT-qPCR) (Day 5, replicate 3): 611.507
BMP2 mRNA level (RT-qPCR) (Day 0, replicate 1): 0.8054
BMP4 mRNA level (RT-qPCR) (Day 0, replicate 1): 1.545
CDH2 mRNA level (RT-qPCR) (Day 0, replicate 1): 1.016
CXCR4 mRNA level (RT-qPCR) (Day 0, replicate 1): 0.9995
SNAI1 mRNA level (RT-qPCR) (Day 0, replicate 1): 1.4406
TBXT mRNA level (RT-qPCR) (Day 0, replicate 1): 1.3
BMP2 mRNA level (RT-qPCR) (Day 0, replicate 2): 1.199
BMP4 mRNA level (RT-qPCR) (Day 0, replicate 2): 0.6508
CDH2 mRNA level (RT-qPCR) (Day 0, replicate 2): 0.7569
CXCR4 mRNA level (RT-qPCR) (Day 0, replicate 2): 1.121
SNAI1 mRNA level (RT-qPCR) (Day 0, replicate 2): 0.9418
TBXT mRNA level (RT-qPCR) (Day 0, replicate 2): 0.8652
BMP2 mRNA level (RT-qPCR) (Day 0, replicate 3): 0.9954
BMP4 mRNA level (RT-qPCR) (Day 0, replicate 3): 0.8046
CDH2 mRNA level (RT-qPCR) (Day 0, replicate 3): 1.227
CXCR4 mRNA level (RT-qPCR) (Day 0, replicate 3): 0.8798
SNAI1 mRNA level (RT-qPCR) (Day 0, replicate 3): 0.6176
TBXT mRNA level (RT-qPCR) (Day 0, replicate 3): 0.8351
BMP2 mRNA level (RT-qPCR) (Day 3, replicate 1): 1.083
BMP4 mRNA level (RT-qPCR) (Day 3, replicate 1): 30.6184
CDH2 mRNA level (RT-qPCR) (Day 3, replicate 1): 23.3268
CXCR4 mRNA level (RT-qPCR) (Day 3, replicate 1): 950.283
SNAI1 mRNA level (RT-qPCR) (Day 3, replicate 1): 22.3091
TBXT mRNA level (RT-qPCR) (Day 3, replicate 1): 6339.58
BMP2 mRNA level (RT-qPCR) (Day 3, replicate 2): 0.8465
BMP4 mRNA level (RT-qPCR) (Day 3, replicate 2): 25.9141
CDH2 mRNA level (RT-qPCR) (Day 3, replicate 2): 19.1392
CXCR4 mRNA level (RT-qPCR) (Day 3, replicate 2): 710.257
SNAI1 mRNA level (RT-qPCR) (Day 3, replicate 2): 18.7714
TBXT mRNA level (RT-qPCR) (Day 3, replicate 2): 5442.29
BMP2 mRNA level (RT-qPCR) (Day 3, replicate 3): 1.108
BMP4 mRNA level (RT-qPCR) (Day 3, replicate 3): 28.7876
CDH2 mRNA level (RT-qPCR) (Day 3, replicate 3): 24.2422
CXCR4 mRNA level (RT-qPCR) (Day 3, replicate 3): 582.163
SNAI1 mRNA level (RT-qPCR) (Day 3, replicate 3): 15.4609
TBXT mRNA level (RT-qPCR) (Day 3, replicate 3): 8084.66
BMP2 mRNA level (RT-qPCR) (Day 4, replicate 1): 0.2114
BMP4 mRNA level (RT-qPCR) (Day 4, replicate 1): 7.214
CDH2 mRNA level (RT-qPCR) (Day 4, replicate 1): 11.5611
CXCR4 mRNA level (RT-qPCR) (Day 4, replicate 1): 685.489
SNAI1 mRNA level (RT-qPCR) (Day 4, replicate 1): 15.012
TBXT mRNA level (RT-qPCR) (Day 4, replicate 1): 2940.28
BMP2 mRNA level (RT-qPCR) (Day 4, replicate 2): 0.2729
BMP4 mRNA level (RT-qPCR) (Day 4, replicate 2): 9.74
CDH2 mRNA level (RT-qPCR) (Day 4, replicate 2): 14.1794
CXCR4 mRNA level (RT-qPCR) (Day 4, replicate 2): 388.959
SNAI1 mRNA level (RT-qPCR) (Day 4, replicate 2): 19.2435
TBXT mRNA level (RT-qPCR) (Day 4, replicate 2): 3606.85
BMP2 mRNA level (RT-qPCR) (Day 4, replicate 3): 0.3615
BMP4 mRNA level (RT-qPCR) (Day 4, replicate 3): 11.782
CDH2 mRNA level (RT-qPCR) (Day 4, replicate 3): 17.5421
CXCR4 mRNA level (RT-qPCR) (Day 4, replicate 3): 349.009
SNAI1 mRNA level (RT-qPCR) (Day 4, replicate 3): 14.5806
TBXT mRNA level (RT-qPCR) (Day 4, replicate 3): 4470.07
GATA4 (RT-qPCR) (Day 0, replicate 1): 0.7242
GATA4 (RT-qPCR) (Day 0, replicate 2): 1.3517
GATA4 (RT-qPCR) (Day 0, replicate 3): 0.9241
GATA4 (RT-qPCR) (Day 3, replicate 1): 32.2036
GATA4 (RT-qPCR) (Day 3, replicate 2): 43.7097
GATA4 (RT-qPCR) (Day 3, replicate 3): 38.0896
GATA4 (RT-qPCR) (Day 5, replicate 1): 51.4498
GATA4 (RT-qPCR) (Day 5, replicate 2): 54.8514
GATA4 (RT-qPCR) (Day 5, replicate 3): 109.794
SOX17 (RT-qPCR) (Day 0, replicate 1): 1.264
SOX17 (RT-qPCR) (Day 0, replicate 2): 0.8709
SOX17 (RT-qPCR) (Day 0, replicate 3): 0.8647
SOX17 (RT-qPCR) (Day 3, replicate 1): 1792.04
SOX17 (RT-qPCR) (Day 3, replicate 2): 907.999
SOX17 (RT-qPCR) (Day 3, replicate 3): 1484.43
SOX17 (RT-qPCR) (Day 5, replicate 1): 1721.02
SOX17 (RT-qPCR) (Day 5, replicate 2): 1190.77
SOX17 (RT-qPCR) (Day 5, replicate 3): 1778.6
